This note sets out measurements from US7141598B2, “Imidazole derivatives, production method thereof and use thereof” (Takeda Pharmaceutical Company, Ltd., priority 2000, dated 2006).

The target of test [1] is T1, human CYP3A4 (Homo sapiens, UniProt P08684).
T1 construct: purchased GENTEST
Kind of test: Assay of human CYP3A4-inhibitory activity. It counts as biochemical. As to conditions: testosterone 100 μM, human CYP3A4 10 pmol/ml, 37° C., 30 min; read-out: IC50 (CYP3A4 inhibition, 6β-hydroxytestosterone production). On the procedure: Assay of Human CYP3A4-Inhibitory Activity
Performed as in the following according to Journal of Biological Chemistry, vol. 256, 11937 (1983).
A phosphate buffer solution (50 mM, pH 7.4) containing testosterone (final concentration 100 μM, hereinafter the same), human CYP3A4 (10 pmol/ml, manufactured by GENTEST), NADPH producing system (0.5 mM NADP, 5 mM glucose-6-phosphate, 5 mM magnesium chloride, 1.5 units/ml glucose-6-phosphate dehydrogenase) and the test compound was incubated at 37° C. for 30 min. Acetonitrile was added to the reaction mixture and the mixture was stirred and centrifuged. The 6β-hydroxytestosterone in the obtained supernatant was analyzed by high performance liquid chromatography.

Test [2] addresses T2, steroid C17,20-lyase (Rattus norvegicus, UniProt P11715).
T2 construct: The orchis was homogenized and centrifuged to prepare a microsome; from tissue; host or cells: testis (orchis) microsomes of 13-week-old male SD rat
T2 sequence (P11715 1-507): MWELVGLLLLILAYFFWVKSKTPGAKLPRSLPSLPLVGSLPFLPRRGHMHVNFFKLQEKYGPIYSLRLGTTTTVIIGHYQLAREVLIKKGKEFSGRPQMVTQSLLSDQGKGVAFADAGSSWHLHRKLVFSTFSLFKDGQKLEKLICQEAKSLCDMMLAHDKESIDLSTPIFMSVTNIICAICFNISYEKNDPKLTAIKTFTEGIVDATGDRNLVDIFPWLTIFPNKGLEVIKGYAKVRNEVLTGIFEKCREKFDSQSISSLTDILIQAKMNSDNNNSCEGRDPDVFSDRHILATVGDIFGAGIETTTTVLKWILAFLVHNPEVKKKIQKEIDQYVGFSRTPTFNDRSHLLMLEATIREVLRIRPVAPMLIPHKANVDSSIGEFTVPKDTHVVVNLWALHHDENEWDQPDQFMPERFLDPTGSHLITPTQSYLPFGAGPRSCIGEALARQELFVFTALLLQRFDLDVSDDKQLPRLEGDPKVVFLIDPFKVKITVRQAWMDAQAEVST
Put plainly: Assay of steroid C17,20-lyase-inhibitory activity in rat (testis microsome). The settings on record: male SD rat orchis microsome, 10 nM [1.2-3H]-17α-hydroxyprogesterone, 37° C., 7 min; read-out: IC50 (steroid C17,20-lyase inhibition). It counts as biochemical. Here is the method:
Assay of steroid C17,20-Lyase-Inhibitory Activity in Rat
The assay was performed according to The Prostate, Vol. 26, 140–150 (1995).
The orchis was removed from 13-week-old male SD rat. The orchis was homogenized and centrifuged to prepare a microsome. The [1.2-^3H]-17α-hydroxyprogesterone having a final concentration of 10 nM, NADPH solution and the test compound were dissolved in a 100 mM phosphate buffer solution (10 μl, pH 7.4). Microsome protein (7 μg/10 μl) was added and the mixture was incubated at 37° C. for 7 min. Ethyl acetate (40 μl) was added and the mixture was centrifuged, and the substrate and the product (androstenedione and testosterone) in the supernatant were separated by a silica gel thin layer chromatography (TLC). The spot was detected and quantitatively assayed by a BAS 2000 bioimage analyzer.

Test [3] has as its system testosterone biosynthesis. Kind of test: Assay of inhibitory effect on testosterone biosynthesis in rats. The settings on record: 25 mg/kg oral, male SD rat, serum testosterone 2 h after administration, relative to control group. It counts as in vivo. Here is the method: Assay of Inhibitory Effect on Testosterone Biosynthesis in Rats
The test compound (25 mg/kg) was orally administered to 9-week-old male SD (Sprague Dawley) rat. Blood was taken at 2 h after administration of the compound and the concentration of testosterone in the obtained serum was assayed by radioimmunoassay. The proportion (T/C, %) of testosterone concentration of the test drug administration group relative to the testosterone concentration of the control group was calculated to determine testosterone synthesis-inhibitory activity.

Molecules are shown by their SMILES. A value given as a limit tells only on which side of the number the result lay.

T1 sequence (P08684 whole entry): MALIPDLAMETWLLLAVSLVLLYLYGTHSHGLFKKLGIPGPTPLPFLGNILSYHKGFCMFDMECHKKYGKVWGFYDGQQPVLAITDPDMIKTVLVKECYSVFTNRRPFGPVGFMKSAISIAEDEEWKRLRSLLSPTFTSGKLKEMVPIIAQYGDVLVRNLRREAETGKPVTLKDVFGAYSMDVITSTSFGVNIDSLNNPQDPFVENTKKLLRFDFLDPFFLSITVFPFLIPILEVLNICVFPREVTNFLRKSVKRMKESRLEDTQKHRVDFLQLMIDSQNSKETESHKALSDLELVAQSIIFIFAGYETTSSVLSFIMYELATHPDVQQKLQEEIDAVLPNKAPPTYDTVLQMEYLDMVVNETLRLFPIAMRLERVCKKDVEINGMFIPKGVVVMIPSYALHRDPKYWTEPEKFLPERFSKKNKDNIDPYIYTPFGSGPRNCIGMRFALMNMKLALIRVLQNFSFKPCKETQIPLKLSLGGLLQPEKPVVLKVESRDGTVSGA

As usually defined, the IC50 is the concentration at which inhibition is half-maximal. Take `OC1(c2ccc(-c3ccc(F)cc3)cc2)CCn2cncc21` (stereo not shown) [Example 4, 7-(4′-fluoro[1,1′-biphenyl]-4-yl)-6,7-dihydro-5H-pyrrolo[1,2-c]imidazol-7-ol]: the figures for the IC50 in test [1] and in test [2] were > 10 µM and 0.025 µM, respectively. On to `CNC(=O)c1ccc2cc(C3(O)CCn4cncc43)ccc2c1` (stereo not shown) [Example 5, 6-(7-hydroxy-6,7-dihydro-5H-pyrrolo[1,2-c]imidazol-7-yl)-N-methyl-2-naphthamide], for which the half-maximal inhibitory concentration (IC50) in test [2] stood at 0.054 µM. On to `CNC(=O)c1ccc2cc(C3(O)CCn4cncc43)ccc2c1` (single isomer, unassigned; (+)) [Example 11, (+)-6-(7-hydroxy-6,7-dihydro-5H-pyrrolo[1,2-c]imidazol-7-yl)-N-methyl-2-naphthamide], for which the 50% inhibitory concentration (IC50) in test [2] is 0.048 µM. As for `OC1(c2cccc(-c3ccc(F)cc3)c2)CCn2cncc21` (stereo not shown) [Example 3, 7-(4′-fluoro[1,1′-biphenyl]-3-yl)-6,7-dihydro-5H-pyrrolo[1,2-c]imidazol-7-ol], the 50% inhibitory concentration (IC50) in test [1] came out at 9.6 µM; in test [2], 0.01 µM. In addition, the “inhibitory effect on testosterone biosynthesis (T/C, %)” value in test [3] came to 4.4%.
